Measured values taken from ChEMBL document CHEMBL2424593, “New scaffolds of natural origin as Integrase-LEDGF/p75 interaction inhibitors: virtual screening and activity assays” (Eur J Med Chem, 2013).
Activity calls are given as the source filed them. No cut-off for these calls is given here.

Columns and labels:
[1] = Inhibition of HIV1 His6-tagged integrase-LEDGF/p75 (unknown origin) interaction incubated for 30 mins followed by LEDGF/p75 addition measured after 4 hrs
[2] = Inhibition of HIV1 His6-tagged integrase-LEDGF/p75 (unknown origin) interaction at 100 uM incubated for 30 mins followed by LEDGF/p75 addition measured after 4 hrs relative to control
[3] = test system: Human immunodeficiency virus; experiment: Antiviral activity against HIV 3B infected in human MT4 cells assessed as protection against virus-induced cytopathic effect at 100 uM by MTT assay; assay type: functional, organism-based
MT4 = experiment: Cytotoxicity against human MT4 cells at 125 uM by MTT assay; assay type: cell-based; details: mt4, 125 µM

| Compound | IC50 [1] | inhibition [2] | Activity [3] | Activity (MT4) |
| --- | --- | --- | --- | --- |
| O=C(O)Cc1c(-c2ccccc2)c2cc(Cl)ccc2[nH]c1=O | 12.2 µM |  |  |  |
| CCc1cc(C(=O)Cc2ccc3c(c2)OCCO3)c(O)cc1OCC(=O)O | > 100 µM | 50% |  |  |
| Cc1ccc2[nH]c(=O)c(CC(=O)O)c(-c3ccccc3)c2c1 | 52.5 µM | 61% |  |  |
| COc1ccc2nc(C)cc(Nc3cccc(C(=O)O)c3)c2c1 |  | 30% |  |  |
| Cc1cn2c3c(=O)n(CCc4ccccc4)c(=O)n(C)c3nc2n1CC(=O)O |  | 52% |  |  |
| Cn1c(=O)c(CC(=O)O)c(O)c2ccccc21 |  | inactive |  |  |
| O=C(O)c1nn(Cc2ccc(Cl)cc2Cl)c2ccccc12 |  | 40% |  |  |
| Cc1c(OC(C(=O)O)c2ccccc2)ccc2c(-c3ccccc3)cc(=O)oc12 (racemic) | 37.2 µM | 87% | inactive |  |
| CCCC(C(=O)O)c1cnc2ccc(Cl)cc2c1-c1ccccc1 (racemic) | 1.37 µM |  |  |  |
| COc1ccc(/C=C2/SC(=S)N(C(C(=O)O)C(C)C)C2=O)cc1 (racemic) | 41.3 µM |  | inactive | Non-toxic |
| O=C(O)c1cc(N(Cc2ccccc2O)Cc2ccccc2O)ccc1O [LAVENDUSTIN B] | 94.1 µM | 58% |  |  |
